Experimental data as given in patent US5037980A, “Phenyl imidazo[1,2-a]pyrimidines” (American Cyanamid Company, priority 1988, dated 1991).

What was measured:
[1] = test system: spontaneously hypertensive rats; experiment: Mean arterial blood pressure in spontaneously hypertensive rats; type: in vivo, Okamoto strain); details: 100 mg/kg by gavage at 0 and 24 hours, measured at 28 hours, 1 rat; average of SHR used 170+1.5 mm of mercury
Description: The novel compounds of the present invention were tested for hypotensive activity by the method of P. S. Chan and D. W. Poorwin, Clin. Exptl. Hypertension, 1 (6): 817 (1979). Male, 16-20 week old, spontaneously hypertensive rats (SHR) of the Okamoto strain, from Taconic Farms, Germantown, New York, having an average mean arterial blood pressure of 170+1.5 mm of mercury are used in the test. One male adult SHR weighing about 300 g is dosed by gavage with a test compound, suspended in 2% pre-boiled starch at a concentration of 50 mg/ml, at a dose of 100 mg/kg of body weight or less, with 0.9% sodium chloride loading at a dose of 25 ml/kg of body weight, at zero hours. A second indentical dose of the test compound, without sodium chloride loading in given 24 hours later. At 28 hours after the initial dose the mean arterial blood pressure is measured by the method of Chan and Poorwin vide supra. The results of this test on representative compounds of the present invention appear below in Table IV.

brain-specific receptors = experiment: Inhibition of the binding of 3H-benzodiazepine to brain-specific receptors of rats; design: species or system rat (Wistar); details: 3H-flunitrazepam, rat whole cortex P2-synaptosomal fraction, pH 7.5, 30 minutes, 0° C.; test compound concentration not given
[2] = test system: clonic seizures caused by pentylenetetrazole in rats; experiment: Protection against clonic seizures caused by pentylenetetrazole in rats; type: in vivo, rat; details: oral or i.p., pentylenetetrazole 23 mg/kg i.v. at 30 or 60 minutes
Description: The anti-anxiety properties of the novel compounds of the present invention have been established in a test which indicates anxiolytic activity by the measure of protection from convulsions resulting from the administration of pentylenetetrazole. Single or graded dose levels of the test compounds were administered orally or intraperitoneally in a 2% starch vehicle containing 0.5% v/v polyethylene glycol and one drop of polysorbate 80 or distilled water and one drop of polysorbate 80 to groups of at least 4 rats. At 30 or 60 minutes, the rats were treated intravenously with pentylenetetrazole at a dose of 23 mg/kg of body weight. This dose is estimated to cause clonic seizures in 99% of unprotected rats. It has been reported [R. T. Hill and D. H. Tedeschi, "Animal Testing and Screening Procedures in Evaluating Psychotropic Drugs" in "An Introduction to Psychopharmacology", Eds. R. R. Rech and K. E. Moore, Raven Press, New York, pp 237-288 (1971)] that there is a high degree of correlation between antagonism of pentylenetetrazole seizures in rats and anti-anxietyeffects in higher warm-blooded animals.

rats = experiment: Non-conditioned passive avoidance test in rats; type: in vivo, rat (Wistar); design: key: Active: considered active if the number of shocks received by the test group is significantly higher than the control group by the Mann-Whitney U test; details: oral or i.p., 30 or 60 minutes before test
Description: Another test used to assess anti-anxiety effects is a non-conditioned passive avoidance procedure described by J. R. Vogel, B. Beer and D. E. Clody. "A Simple and Reliable Conflict Procedure for Testing Anti-Anxiety Agents", Psychopharmacologia, 21, 1-7 (1971). A conflict situation is induced in rats by a modification of this method.
Groups of 8 naive, Wistar strain male rats weighing 200-240 g each were deprived of water for 48 hours. The test compounds were administered in single or graded, oral or intraperitoneal doses, suspended in distilled water and one drop of polysorbate 80. Control animals received the vehicle alone. At 30 or 60 minutes each rat was placed in an individual clear plexiglass chamber. Tap water was available ad libitum from a nipple located in a black plexiglass box off the main chamber. A 0.7 milliampere AC shocking current was established between the stainless steel grid floor and the tap. After 20 licks of non-shocked drinking, a 2 second shocking current was administered to the rat. This ratio of 20 licks of non-shocked drinking followed by a 2 second shock was continued for a total of 3 minutes. The number of shocks taken by each rat during the 3 minute interval was recorded and compared to a control group.

| SMILES | Mean Arterial Blood Pressure [1] | % Inhibition of 3H-benzodiazepine binding (brain-specific receptors) [%] | further results |
| --- | --- | --- | --- |
| Clc1ccc(-c2ccnc3nccn23)c(Cl)c1 [5-(2,4-Dichlorophenyl)imidazo-[1,2-a]pyrimidine] | 111 | 11 | – |
| Cc1cc(-c2ccccc2F)n2ccnc2n1 [5-(2-Fluorophenyl)-7-methyl imidazo[1,2-a]pyrimidine] | – | 13 | – |
| Fc1ccccc1-c1ccnc2nccn12 [5-(2-Fluorophenyl)imidazo[1,2-a]-pyrimidine] | 121 | 49 | – |
| COc1cc(-c2ccnc3nccn23)cc(OC)c1OC [5-(3,4,5-Trimethoxyphenyl)imidazo-[1,2-a]pyrimidine] | 147 | – | % of Rats Protected ([2]; dose 25 mg/kg): 75% |
| Cc1cc(-c2ccc(Cl)c(Cl)c2)n2ccnc2n1 [5-(3,4-Dichlorophenyl)-7-methyl-imidazo-[1,2-a]pyrimidine] | 119 | 22 | – |
| COc1ccc(-c2cc(C)nc3nccn23)cc1OC [5-(3,4-Dimethoxyphenyl)-7-methyl-imidazo[1,2-a]pyrimidine] | 148 | 46 | – |
| Clc1cccc(-c2ccnc3nccn23)c1 [5-(3-Chlorophenyl)imidazo[1,2-a]-pyrimidine] | 146 | 37 | % of Rats Protected ([2]; dose 25 mg/kg): 50%; Result (non-conditioned passive avoidance) (rats; dose 25.0 mg/kg): Active |
| Brc1ccc(-c2ccnc3nccn23)cc1 [5-(4-Bromophenyl)imidazo[1,2-a]-pyrimidine] | 97 | – | – |
| FC(F)(F)c1cccc(-c2ccnc3nccn23)c1 [5-(α,α,α-Trifluoro-m-tolyl)imidazo[1,2-a]pyrimidine] | 126 | 46 | % of Rats Protected ([2]; dose 50 mg/kg): 100%; Result (non-conditioned passive avoidance) (rats; dose 25.0 mg/kg): Active |
| COc1cc(-c2cc(C)nc3nccn23)cc(OC)c1OC [7-Methyl-5-(3,4,5-trimethoxy-phenyl)imidazo[1,2-a]pyrimidine] | – | 10 | Result (non-conditioned passive avoidance) (rats; dose 35.0 mg/kg): Active |
| Cc1cc(-c2cccc(C(F)(F)F)c2)n2ccnc2n1 [7-Methyl-5-[3-(trifluoromethyl)phenyl]imidazo[1,2-a]pyrimidine] | 127 | 42 | – |
| Cc1cc(-c2ccccc2)n2ccnc2n1 [7-Methyl-5-phenylimidazo[1,2-a]-pyrimidine] | – | 43 | – |
